Tested on: wheat
Experiment: Field grown wheat, harvest parameters
Assay type: in vivo, Triticum aestivum
Details: seeds not coated
Method: Effect of the psychrorphilic biofertilizer was tested on field conditions on wheat cultivation in Victoria City, Temuco, Chile. Wheat seeds were disinfected and coated with the psychrophilic bacterial biofertilizer of the present invention as described in Example 3. Control seeds were disinfected and treated with water. A field of one hectare was directly sowed with the seeds using a random block experimental design with four repetitions per treatments. Further, total yield after the harvest was measured and the yield per unit area of the crop field was calculated.

**Q.** Which results are given for `O=P(=O)OP(=O)=O` [Strain P2O5, P2O5]?
**A.** Weight 1000 grains (50 Kg P2O5/ha): 33 ± 3 g; Yield (50 Kg P2O5/ha): 4.8 ± 0.5 ton/ha; Weight 1000 grains (100 Kg P2O5/ha): 37 ± 3 g; Yield (100 Kg P2O5/ha): 5.1 ± 0.3 ton/ha; Weight 1000 grains (150 Kg P2O5/ha): 35 ± 3 g; Yield (150 Kg P2O5/ha): 5.0 ± 0.4 ton/ha
